From patent US4153710A, “N-(4-[2-(pyrazole-1-carbonamide)-ethyl]-benzenesulphonyl)-urea” (Starogardzkie Zaklady Farmaceutyczne POLFA, priority 1976, dated 1979)

Tested on: blood-glucose concentration
Assay: Decrease in blood-glucose concentration in rats after oral dose (Table 1; ED30 rats Table 2)
Format: in vivo
Settings: Rattus norvegicus, po; for inhibition in vivo at 0.25 mg/kg: p.os. 0.25 mg/kg; for inhibition in vivo at 0.5 mg/kg: p.os. 0.5 mg/kg; for inhibition in vivo at 1 mg/kg: p.os. 1 mg/kg; for inhibition in vivo at 2 mg/kg: p.os. 2 mg/kg; for inhibition in vivo at 4 mg/kg: p.os. 4 mg/kg; for inhibition in vivo at 10 mg/kg: p.os. 10 mg/kg; for ED50: p.os., Table 1; for inhibition in vivo at 50 mg/kg: p.os. 50 mg/kg; for inhibition in vivo at 5 mg/kg: p.os. 5 mg/kg; for inhibition in vivo at 20 mg/kg: p.os. 20 mg/kg
Excerpt: The hypoglycemic activity of N-{4-[2-(pyrazole-1-carbonamide)-ethyl]-benzenesulphonyl}-ureas prepared according to the present invention can be noticed after their oral administration to mice, rats, rabbits and people and when determining the glucose concentration in blood with a known enzymatic method using glucose oxidase.
The exemplary comparison of effective doses (ED30) and the effect of oral dose size of the compounds prepared according to the present invention with Glibornuride, which is distinguished by its high effectiveness and good tolerance when administered to people, on the glucose concentration in the blood of rats, is given in Table 1.

Row | SMILES | inhibition in vivo at 1 mg/kg (1 h) | inhibition in vivo at 1 mg/kg (3 h) | inhibition in vivo at 1 mg/kg (6 h) | inhibition in vivo at 2 mg/kg (1 h) | inhibition in vivo at 2 mg/kg (3 h) | inhibition in vivo at 2 mg/kg (6 h) | inhibition in vivo at 4 mg/kg (1 h) | inhibition in vivo at 4 mg/kg (3 h) | inhibition in vivo at 10 mg/kg (1 h) | inhibition in vivo at 10 mg/kg (3 h) | inhibition in vivo at 10 mg/kg (6 h) | ED50 | inhibition in vivo at 4 mg/kg (6 h) | inhibition in vivo at 50 mg/kg (1 h) | inhibition in vivo at 50 mg/kg (3 h) | inhibition in vivo at 50 mg/kg (6 h) | also measured
1 | O=C(NC1CCCCC1)NS(=O)(=O)c1ccc(CCNC(=O)n2cccn2)cc1 [compound 1] | 27% | 27% | 14% | 23% | 34% | 11% | 19% | 37% | 50% | 52% | 29% | 1.8 mg/kg | – | – | – | – | inhibition in vivo at 0.25 mg/kg (1 h): 12%; inhibition in vivo at 0.25 mg/kg (3 h): 19%; inhibition in vivo at 0.25 mg/kg (6 h): 0%; inhibition in vivo at 0.5 mg/kg (1 h): 21%; inhibition in vivo at 0.5 mg/kg (3 h): 19%; inhibition in vivo at 0.5 mg/kg (6 h): 11%
2 | Cc1ccn(C(=O)NCCc2ccc(S(=O)(=O)NC(=O)NC3CCCCC3)cc2)n1 [compound 2] | 19% | 9% | 0% | 23% | 27% | 14% | 30% | 45% | – | – | – | 2.2 mg/kg | 21% | – | – | – | –
3 | Cc1cnn(C(=O)NCCc2ccc(S(=O)(=O)NC(=O)NC3CCCCC3)cc2)c1 [compound 3] | 20% | 18% | 4% | 35% | 28% | 2% | 33% | 32% | 52% | 48% | 37% | 1.9 mg/kg | – | – | – | – | –
4 | CCc1cnn(C(=O)NCCc2ccc(S(=O)(=O)NC(=O)NC3CCCCC3)cc2)c1 [compound 4] | 28% | 4% | 0% | 46% | 18% | 1% | 40% | 32% | 55% | 39% | 25% | 1.6 mg/kg | – | – | – | – | –
5 | O=C(NC1CCCCC1)NS(=O)(=O)c1ccc(CCNC(=O)n2cc(Cl)cn2)cc1 [compound 5] | – | – | – | – | – | – | – | – | 16% | 0% | – | – | – | 38% | 36% | 12% | –
6 | Cc1cc(C)n(C(=O)NCCc2ccc(S(=O)(=O)NC(=O)NC3CCCCC3)cc2)n1 [compound 6] | – | – | – | – | – | – | 18% | 33% | 23% | 40% | 35% | 3.5 mg/kg | 23% | – | – | – | –
7 | Cc1cn(C(=O)NCCc2ccc(S(=O)(=O)NC(=O)NC3CCCCC3)cc2)nc1C [compound 7] | – | – | – | 18% | 24% | 19% | – | – | 37% | 54% | 26% | 3.3 mg/kg | – | – | – | – | inhibition in vivo at 0.25 mg/kg (1 h): 11%; inhibition in vivo at 0.25 mg/kg (3 h): 17%; inhibition in vivo at 0.25 mg/kg (6 h): 11%; inhibition in vivo at 0.5 mg/kg (1 h): 19%; inhibition in vivo at 0.5 mg/kg (3 h): 29%; inhibition in vivo at 0.5 mg/kg (6 h): 20%
8 | CCc1nn(C(=O)NCCc2ccc(S(=O)(=O)NC(=O)NC3CCCCC3)cc2)cc1C [compound 8] | 17% | 18% | 15% | – | – | – | 19% | 31% | 27% | 45% | 25% | 4 mg/kg | 15% | – | – | – | –
9 | Cc1nn(C(=O)NCCc2ccc(S(=O)(=O)NC(=O)NC3CCCCC3)cc2)cc1Cl [compound 9] | – | – | – | – | – | – | – | – | 24% | 7% | 0% | – | – | – | – | – | –
10 | Cc1nn(C(=O)NCCc2ccc(S(=O)(=O)NC(=O)NC3CCCCC3)cc2)c(C)c1C [compound 10] | – | – | – | – | – | – | 24% | 35% | 35% | 49% | 17% | 4 mg/kg | 28% | 48% | 62% | 52% | –
11 | CCc1c(C)nn(C(=O)NCCc2ccc(S(=O)(=O)NC(=O)NC3CCCCC3)cc2)c1C [compound 11] | – | – | – | – | – | – | 16% | 27% | 29% | 53% | – | 4.8 mg/kg | 3% | 57% | 60% | 53% | –
12 | CCCc1c(C)nn(C(=O)NCCc2ccc(S(=O)(=O)NC(=O)NC3CCCCC3)cc2)c1C [compound 12] | – | – | – | – | – | – | – | – | 14% | – | 10% | – | – | 22% | 39% | 32% | –
13 | CCCCc1c(C)nn(C(=O)NCCc2ccc(S(=O)(=O)NC(=O)NC3CCCCC3)cc2)c1C [compound 13] | – | – | – | – | – | – | – | – | 0% | – | – | – | – | 18% | 27% | 3% | –
14 | Cc1nn(C(=O)NCCc2ccc(S(=O)(=O)NC(=O)NC3CCCCC3)cc2)c(C)c1Cl [compound 14] | 11% | 21% | 7% | 14% | 24% | 14% | 21% | 29% | – | – | – | 5 mg/kg | 11% | – | – | – | –
15 | O=C(NC1CCCC1)NS(=O)(=O)c1ccc(CCNC(=O)n2cccn2)cc1 [compound 15] | – | – | – | – | – | – | 14% | 5% | 20% | 16% | 7% | – | – | – | – | – | –
16 | Cc1ccn(C(=O)NCCc2ccc(S(=O)(=O)NC(=O)NC3CCCC3)cc2)n1 [compound 16] | – | – | – | – | – | – | 18% | 14% | 16% | 20% | – | – | – | – | – | – | –
17 | Cc1cnn(C(=O)NCCc2ccc(S(=O)(=O)NC(=O)NC3CCCC3)cc2)c1 [compound 17] | – | – | – | 29% | 16% | 5% | 41% | 41% | 41% | 51% | 28% | 2.3 mg/kg | 23% | – | – | – | –
18 | CCCCNC(=O)NS(=O)(=O)c1ccc(CCNC(=O)n2ccc(C)n2)cc1 [compound 21] | 23% | 23% | 22% | – | – | – | – | – | 55% | 53% | 56% | – | – | – | – | – | inhibition in vivo at 0.5 mg/kg (1 h): 6%; inhibition in vivo at 0.5 mg/kg (3 h): 22%; inhibition in vivo at 0.5 mg/kg (6 h): 29%; inhibition in vivo at 5 mg/kg (1 h): 22%; inhibition in vivo at 5 mg/kg (3 h): 38%; inhibition in vivo at 5 mg/kg (6 h): 43%; inhibition in vivo at 20 mg/kg (1 h): 50%; inhibition in vivo at 20 mg/kg (3 h): 55%; inhibition in vivo at 20 mg/kg (6 h): 56%
19 | CCCNC(=O)NS(=O)(=O)c1ccc(CCNC(=O)n2ccc(C)n2)cc1 [compound 22] | – | – | – | 4% | 26% | 23% | – | – | 25% | 29% | 35% | – | – | 54% | 55% | 48% | inhibition in vivo at 5 mg/kg (1 h): 15%; inhibition in vivo at 5 mg/kg (3 h): 24%; inhibition in vivo at 5 mg/kg (6 h): 26%; inhibition in vivo at 20 mg/kg (1 h): 45%; inhibition in vivo at 20 mg/kg (3 h): 56%; inhibition in vivo at 20 mg/kg (6 h): 56%
